{
  "source": "paper PMC10762035",
  "about": "“Molecular basis of human trace amine-associated receptor 1 activation” (Nature Communications, 2024)",
  "key": {"hTA1": {"target": "T1, hTA1 (Homo sapiens, UniProt Q96RJ0)", "T1 construct": "expressed in transfected cells; host or cells: HEK293T", "T1 sequence (Q96RJ0 1-339)": "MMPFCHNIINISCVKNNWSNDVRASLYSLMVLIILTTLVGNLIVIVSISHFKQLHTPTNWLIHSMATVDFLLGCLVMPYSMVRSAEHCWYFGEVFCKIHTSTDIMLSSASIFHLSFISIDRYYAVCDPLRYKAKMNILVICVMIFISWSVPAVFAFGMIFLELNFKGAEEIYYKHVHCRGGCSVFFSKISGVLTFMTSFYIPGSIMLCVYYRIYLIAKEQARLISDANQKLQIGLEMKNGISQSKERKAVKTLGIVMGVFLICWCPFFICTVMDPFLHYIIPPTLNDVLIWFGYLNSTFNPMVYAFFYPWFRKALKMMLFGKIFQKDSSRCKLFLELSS", "assay": "GloSensor cAMP accumulation assay, concentration response, wild-type hTA1 in transfected HEK293T cells;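 further: luminescence read after 30 min compound exposure at room temperature in cells preloaded with D-Luciferin, reflecting Gs-driven cAMP rise, efficacy scaled to the maximal β-PEA response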", "assay_type": "cell-based", "conditions": "for Emax: HEK-293T"}, "hTA1 C88/178S": {"target": "T2, hTA1 C88/178S (Homo sapiens, UniProt Q96RJ0, C178S/C88S)", "T2 construct": "expressed in transfected cells; host or cells: HEK293T", "T2 sequence (Q96RJ0 1-339 C88S/C178S)": "T1 sequence (Q96RJ0 1-339) with C88S, C178S", "assay": "GloSensor cAMP accumulation assay, C88S/C178S double mutant", "assay_type": "cell-based", "conditions": "for Normalized Luminescence Counts (N=2): log[Compound], single replicate values"}, "hTA1 I290N": {"target": "T3, hTA1 I290N (Homo sapiens, UniProt Q96RJ0, I290N)", "T3 construct": "expressed in transfected cells; host or cells: HEK293T", "T3 sequence (Q96RJ0 1-339 I290N)": "T1 sequence (Q96RJ0 1-339) with I290N", "assay": "GloSensor cAMP accumulation assay, I290N mutant;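 further: cells transiently co-expressing hTA1 and the GloSensor cAMP biosensor, luminescence read 30 min after compound addition at room temperature, efficacy scaled to the maximal β-PEA response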", "assay_type": "cell-based"}, "hTA1 F195T": {"target": "T4, hTA1 F195T (Homo sapiens, UniProt Q96RJ0, F195T)", "T4 construct": "expressed in transfected cells; host or cells: HEK293T", "T4 sequence (Q96RJ0 1-339 F195T)": "T1 sequence (Q96RJ0 1-339) with F195T", "assay": "GloSensor cAMP accumulation assay, F195T mutant;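 further: cells transiently co-expressing HA-FLAG-tagged hTA1 and the GloSensor cAMP biosensor, luminescence read 30 min after agonist addition at room temperature, concentration-response fitted by nonlinear regression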", "assay_type": "cell-based"}, "hTA1 T194A": {"target": "T5, hTA1 T194A (Homo sapiens, UniProt Q96RJ0, T194A)", "T5 sequence (Q96RJ0 1-339 T194A)": "T1 sequence (Q96RJ0 1-339) with T194A", "assay": "GloSensor cAMP accumulation assay, T194A mutant"}, "[1]": {"conditions": "C88S, C178S, each row is one independent experiment, 3 replicates"}, "[2]": {"conditions": "read-out: Span ± SEM (Emax normalized to β-PEA)"}},
  "note": "Substitutions are numbered along the chain they refer to. Values joined by “and” are separate entries in the source; they are usually repeats but may differ in a detail not shown here. Equal entries are not always repeated. Where two headings read alike, the source gives them in different places.",
  "data": [
    {"molecule": "CCC(CC1COC(N)=N1)c1ccccc1", "note": "(centres unmarked) [Ro5256390]", "values": [
      {"measurement": "EC50", "setting": "hTA1; EC50, wt hTA1, HEK293T, n=3", "result": "5.33 nM and 5.3 nM"},
      {"measurement": "Emax", "setting": "hTA1; read-out: Emax values (Mean), WT hTA1, β-PEA = 100, each line an independent experiment, 3 replicates", "result": 105, "unit": "%"},
      {"measurement": "Emax", "setting": "hTA1; wt hTA1, relative to β-PEA", "result": 103, "unit": "%"},
      {"measurement": "Emax values, Mean", "setting": "hTA1; WT hTA1, β-PEA = 100, each line an independent experiment, 3 replicates", "result": 101.582},
      {"measurement": "Emax values, Avg", "setting": "hTA1; WT, average of the experiments, β-PEA = 100", "result": 103.3},
      {"measurement": "Emax values, Avg", "setting": "hTA1; WT, average of the two experiments", "result": 103.3},
      {"measurement": "Emax values, Mean", "setting": "hTA1; WT, mean of each independent experiment (3 replicates), β-PEA = 100", "result": "105.026 and 101.582"},
      {"measurement": "Emax values, Mean", "setting": "hTA1; WT, single experiments (3 replicates each), β-PEA = 100", "result": "105.026 and 101.582"},
      {"measurement": "EC50", "setting": "hTA1; pEC50 values (Mean), WT hTA1, each line an independent experiment, 3 replicates, Figure 2B source data", "result": "4.28 nM and 6.65 nM"},
      {"measurement": "EC50", "setting": "hTA1; pEC50 ± SEM, wt hTA1, HEK293T, n=3", "result": 5.37, "unit": "nM"},
      {"measurement": "ΔEmax values (each mutant value - WT average), Mean", "setting": "hTA1 C88/178S; [1]", "result": "2.588 and 13.0349"},
      {"measurement": "ΔpEC50 values (each mutant value - WT average), Mean", "setting": "hTA1 C88/178S; [1]", "result": "-0.3451 and 0.337"},
      {"measurement": "Normalized Luminescence Counts (N=2)", "setting": "hTA1 C88/178S; C88S, C178S, M = -5", "result": "108.214 and 110.475 and 102.673 and 112.685 and 109.211 and 118.575"},
      {"measurement": "Normalized Luminescence Counts (N=2)", "setting": "hTA1 C88/178S; C88S, C178S, M = -5.522", "result": "107.14 and 118.277 and 96.6804 and 111.477 and 99.2423 and 137.304"},
      {"measurement": "Normalized Luminescence Counts (N=2)", "setting": "hTA1 C88/178S; C88S, C178S, M = -6", "result": "102.956 and 112.171 and 95.8888 and 120.841 and 90.9352 and 145.46"},
      {"measurement": "Normalized Luminescence Counts (N=2)", "setting": "hTA1 C88/178S; C88S, C178S, M = -6.522", "result": "97.5284 and 100.073 and 116.864 and 116.461 and 100.602 and 130.658"},
      {"measurement": "Normalized Luminescence Counts (N=2)", "setting": "hTA1 C88/178S; C88S, C178S, M = -7", "result": "99.1114 and 95.1539 and 92.6097 and 130.507 and 95.1643 and 125.523"},
      {"measurement": "Normalized Luminescence Counts (N=2)", "setting": "hTA1 C88/178S; C88S, C178S, M = -7.522", "result": "77.3448 and 82.7723 and 86.5603 and 108.607 and 127.336 and 130.961"},
      {"measurement": "Normalized Luminescence Counts (N=2)", "setting": "hTA1 C88/178S; C88S, C178S, M = -8", "result": "51.564 and 41.5569 and 41.3873 and 109.966 and 74.6229 and 107.852"},
      {"measurement": "Normalized Luminescence Counts (N=2)", "setting": "hTA1 C88/178S; C88S, C178S, M = -8.522", "result": "25.1047 and 27.2531 and 18.3768 and 63.5971 and 68.4303 and 61.3315"},
      {"measurement": "Normalized Luminescence Counts (N=2)", "setting": "hTA1 C88/178S; C88S, C178S, M = -9", "result": "12.0447 and 13.3451 and 14.08 and 33.9934 and 34.4465 and 30.5195"},
      {"measurement": "Normalized Luminescence Counts (N=2)", "setting": "hTA1 C88/178S; C88S, C178S, M = -9.522", "result": "6.334 and 4.865 and 5.4299 and 15.8687 and 15.4156 and 17.077"},
      {"measurement": "Normalized Luminescence Counts (N=2)", "setting": "hTA1 C88/178S; C88S, C178S, M = -10", "result": "1.925 and 5.769 and 1.359 and 9.978 and 13.6031 and 14.0562"},
      {"measurement": "Normalized Luminescence Counts (N=2)", "setting": "hTA1 C88/178S; C88S, C178S, M = -10.522", "result": "1.303 and 1.416 and 1.359 and 5.9 and 3.6345 and 7.562"},
      {"measurement": "Normalized Luminescence Counts (N=2)", "setting": "hTA1 C88/178S; C88S, C178S, M = -11", "result": "1.02 and 0.285 and 0.3416 and 4.3897 and 3.181 and 3.937"},
      {"measurement": "Normalized Luminescence Counts (N=2)", "setting": "hTA1 C88/178S; C88S, C178S, M = -11.522", "result": "1.416 and 0.4547 and 1.585 and 3.03 and 0.6137 and 2.275"},
      {"measurement": "Normalized Luminescence Counts (N=2)", "setting": "hTA1 C88/178S; C88S, C178S, M = -12", "result": "0.0589 and 1.303 and -0.3369 and 0.9158 and 0.009559 and 0.7648"},
      {"measurement": "Normalized Luminescence Counts (N=2)", "setting": "hTA1 C88/178S; C88S, C178S, M = -12.522", "result": "-0.05417 and 0.8504 and 0.7373 and 2.577 and 0.4627 and -0.2925"},
      {"measurement": "Emax values, Mean", "setting": "hTA1 C88/178S; C88S, C178S, normalized (β-PEA = 100), each row is one independent experiment, 3 replicates", "result": "105.892 and 116.339"},
      {"measurement": "EC50", "setting": "hTA1 C88/178S; EC50, C88/178S, n=2", "result": 5.38, "unit": "nM"},
      {"measurement": "EC50", "setting": "hTA1 C88/178S; pEC50 values, Mean, C88S, C178S, each row is one independent experiment, 3 replicates", "result": "11.8 nM and 2.46 nM"},
      {"measurement": "Emax", "setting": "hTA1 C88/178S; [2]", "result": "111 ± 5.22", "unit": "%"},
      {"measurement": "EC50", "setting": "hTA1 I290N; EC50, I290N, n=2", "result": 6.21, "unit": "nM"},
      {"measurement": "cAMP accumulation response, single replicate values (source data, Supplementary Figure 5)", "setting": "hTA1 I290N; hTA1 I290N (N=2), log[Compound], M = -5", "result": "109.556 and 109.922 and 109.294 and 105.343"},
      {"measurement": "ΔpEC50 values (each mutant value - WT average), Mean", "setting": "hTA1 I290N; hTA1 I290N mutant minus WT average", "result": "-0.14 and 0.00774"},
      {"measurement": "Emax values, Mean", "setting": "hTA1 I290N; hTA1 I290N mutant, β-PEA set to 100, each grid row a separate experiment, 3 replicates", "result": 96.7119},
      {"measurement": "EC50", "setting": "hTA1 I290N; pEC50 values (Mean), hTA1 I290N mutant, Figure 3B source data, each grid row a separate experiment, 3 replicates", "result": "7.37 nM and 5.24 nM"},
      {"measurement": "Emax", "setting": "hTA1 I290N; read-out: Emax values (Mean), hTA1 I290N mutant, β-PEA set to 100, each grid row a separate experiment, 3 replicates", "result": 101, "unit": "%"},
      {"measurement": "Emax", "setting": "hTA1 I290N; read-out: Span ± SEM (Emax normalized to β-PEA), I290N, n=2", "result": "99 ± 2.27", "unit": "%"},
      {"measurement": "EC50", "setting": "hTA1 F195T; EC50, F195T, n=2", "result": 2.9, "unit": "nM"},
      {"measurement": "Emax values, Mean", "setting": "hTA1 F195T; F195T mutant, Figure 5B, β-PEA = 100, each row one independent experiment (3 replicates)", "result": 107.711},
      {"measurement": "EC50", "setting": "hTA1 F195T; pEC50 values, Mean, F195T mutant, Figure 5B, each row one independent experiment (3 replicates)", "result": "1.63 nM and 4.03 nM"},
      {"measurement": "Emax", "setting": "hTA1 F195T; read-out: Emax values, Mean, F195T mutant, Figure 5B, β-PEA = 100, each row one independent experiment (3 replicates)", "result": 105, "unit": "%"},
      {"measurement": "Emax", "setting": "hTA1 F195T; read-out: Span ± SEM (Emax normalized to β-PEA), F195T, n=2", "result": "106 ± 1.33", "unit": "%"},
      {"measurement": "EC50", "setting": "hTA1 T194A; EC50, T194A", "result": 34.8, "unit": "nM"},
      {"measurement": "Emax values, Mean", "setting": "hTA1 T194A; T149A (so in the source), single experiments (3 replicates each), β-PEA = 100", "result": "128.602 and 110.169 and 108.613"},
      {"measurement": "reduction in potency vs wild type", "setting": "hTA1 T194A; T194A", "result": "over 5 fold"},
      {"measurement": "EC50", "setting": "hTA1 T194A; pEC50 values, Mean, T149A (so in the source), single experiments (3 replicates each)", "result": "34.8 nM and 27.7 nM and 14.2 nM"},
      {"measurement": "EC50", "setting": "hTA1 T194A; pEC50 ± SEM, T194A", "result": 24, "unit": "nM"},
      {"measurement": "Emax", "setting": "hTA1 T194A; [2]", "result": "116 ± 9.22", "unit": "%"}
    ]}
  ]
}
